Results as given in patent US10865188B2, “Dibenzo azepine compounds and their use in the treatment of otic diseases and disorders” (Pipeline Therapeutics, Inc., priority 2015, dated 2020).
Read-outs that look alike come from different tables or passages of the source.

Assays:
HES5 = assay: Human neural stem cell assay, Hes5 gene expression (real-time PCR); assay type: cell-based; settings: human neural stem cells, 7 point CRC, read-out: hNSC HES5 IC50
Method: (§1) Neural stem cells (NSC) were derived from embryonic stem cells using a published protocol (Yuan et al., Mar. 2, 2011, PLoS ONE, 6(3):e17540). Cells were sorted and characterized at passage 3 and were expanded. Cells were then frozen at passage 5. Cells were maintained in NSC media (DMEM/F12, N2 (1×), B27(1×) (Invitrogen), and Pen/Strep (1×) (Life Technologies) with 20 ng/ml bFGF (BD Bioscience/Corning)). On day 1, cells were plated in 96 well plates that have been previously coated with poly-ornithin and laminin, 60,000 cells/well in 100 μl of media. On day 2, spent media was removed, and 180 μl of fresh media was added to the cells. Later that same day (day 2), cells were treated with 20 μl of NSC media containing test compounds (7 point CRC). On day 3, spent media was removed and 140 μl of RLT/bME was added to the cells. RNA was extracted using the QiaCube (Qiagen®, Germantown, Md., USA) using the total RNA extraction+DNAse protocol. RNA was then reverse-transcribed to cDNA using iScript (Bio-Rad, Hercules, Calif., USA). cDNA was then used for real-time PCR analysis using iTaq Sybergreen (BioRad). Expression of Atoh1, Hes5, Hes1, Myosin7a genes was evaluated using CFX96 or CFX384 (Bio-Rad). HPRT1 was used as a reference gene. Analysis was done using Microsoft® Excel® and CBIS (ChemInnovation Software, Inc., San Diego, Calif., USA). […]

mice = assay: Auditory brainstem response (ABR) hearing threshold; assay type: in vivo; settings: formulations of Examples 3(c) and 3(d) (2% w/v crystalline, poloxamer 407)
Method: Surgery was performed on naïve mice or mice with noise or pharmacologically-damaged ears. The animals were anesthetized with isoflurane and an 8 mm retroauricular incision was made to the lower caudal edge of the pinna. The skin was retracted and the fatty tissue was blunt dissected away from where the facial nerve and muscle come together. The muscle was retracted to reveal an area in the tympanic bulla where the bone was thin. A 30 g needle was used to drill a hole in the exposed thin portion of the otic bulla. A Hamilton syringe equipped with a 32 g blunt needle was inserted into the opening of the otic bulla. The drug formulation was delivered by injection and the needle removed. Wound closure was made with tissue glue.
Naïve mice or mice at various times after either noise or pharmacological deafening were anesthetized with ketamine/xylazine/acepromazine and the auditory brainstem response was determined in both ears using a Tucker Davis (Alachua, Fla.) RZ6 apparatus. The mice were exposed to clicks or pure tones of 4, 8, 16, 24 and 32 kHz at 90-10 dB in 10 dB descending steps and the hearing threshold was determined.

Atoh1 = assay: Human neural stem cell assay, Atoh1 gene expression (real-time PCR); assay type: cell-based; settings: human neural stem cells, 7 point CRC, read-out: hNSC Atoh1 EC50
Method: as §1

[1] = Guinea pig PK after transtympanic delivery (perilymph and cochlea, LC/MS/MS); assay type: in vivo; settings: for concentration at 1 day / concentration at 7 day / concentration at 14 day / concentration at 28 day / concentration at 42 day / concentration at 56 day: male, Hartley, other: transtympanic, 30 μL, 30 μL transtympanic; for concentration at 1 day: Day 1, LLOQ = 0.08 μM; for concentration at 7 day: Day 7, LLOQ = 0.08 μM; for concentration at 14 day: Day 14, LLOQ = 0.08 μM; for concentration at 28 day: Day 28, LLOQ = 0.08 μM; for concentration at 42 day: Day 42, LLOQ = 0.08 μM; for concentration at 56 day: Day 56, LLOQ = 0.08 μM
Text: Male Hartley guinea pigs (300-350 g) were anesthetized with ketamine and xylazine. Thirty microliters of an aqueous pharmaceutical composition of the instant embodiments was delivered transtympanically to deposit the drug to the round window membrane. Delivery was unilateral. The animals were placed in a warm chamber in a lateral recumbent position keeping the dosed ear side up until they recover from anesthesia.
At various timepoints after administration, the animals were euthanized by CO2 inhalation. Blood and CSF were collected and stored at −80° C. The animals were decapitated, the temporal bones removed and the bulla opened to expose the otic capsule. Ipsilateral and contralateral perilymph were collected from the apex using a microcapillary tube. The ipsilateral cochlea was removed from the otic capsule and stored at −80° C. All tissues collected were analyzed using LC/MS/MS for test compound concentration as follows. Analytical standards were prepared by spiking known concentrations of the test compound stock solutions into matrices such as plasma or artificial CSF. Fixed amounts of tissues collected and spiked standards were precipitated with acetonitrile containing buspirone as an internal standard. The precipitated samples were centrifuged at 4000 g for 10 minutes at 4° C. The supernatants were analyzed using LC-MS/MS. The LC-MS/MS system was set up using the AB Sciex 4000 Qtrap (AB Sciex, Framingham, Mass.) equipped with Agilent 1200 series HPLC and CTC PAL Autosampler (Agilent Technologies, Santa Clara, Calif.).
Liquid compositions described herein were evaluated using the method described in Part E of the Biological Function section provided above. The liquid compositions prepared as described in Example 5(a)-5(d) were each drawn into a 1 mL syringe. Using the filled 1 mL syringe, the liquid composition was back-filled at 5° C. into a 100 μL Hamilton syringe adapted with 28 gauge needle. The Hamilton syringe was then allowed to warm to room temperature.
Male Hartley guinea pigs (300-350 g) were anesthetized with ketamine and xylazine. Thirty microliters of the above liquid composition were delivered transtympanically to deposit the drug to the round window membrane. The delivery was unilateral. The animals were placed in a warm chamber in a lateral recumbent position keeping the dosed ear side up until they recovered from anesthesia.
At various timepoints after administration, the animals were euthanized by CO2 inhalation. Blood and cerebrospinal fluid were collected and stored at −80° C. The animals were decapitated, the temporal bones removed and the bulla were opened to expose the otic capsule. Ipsilateral and contralateral perilymph were collected from the apex using a microcapillary tube. The ipsilateral cochlea was removed from the otic capsule and was stored at −80° C. All tissues collected were analyzed using LC/MS/MS as described in Part E of the Biological Function section above.
The concentrations of Compound I and Compound II were measured using LC/MS/MS in both the perilymph fluid and the cochlea tissue after a transtympanic injection of an instant formulation of either the crystalline form or the amorphous form at various time points. […] Concentration of the instant compounds in the perilymph and/or cochlea tissue was above the human NSC EC50 for Atoh1, an indicator that the subject compounds may be efficacious in hair cell regeneration and hearing restoration in human. […] Table 3 below lists the results for the studies using aqueous formulations of crystalline Compound I while Table 4 below lists those for aqueous formulations of crystalline Compound II. The results for aqueous formulations of crystalline Compound I are also graphically shown in FIG. 5A and FIG. 5B while the results for aqueous formulations of crystalline Compound II are graphically shown in FIG. 6A and FIG. 6B.

[2] = cochlea, Amorphous form (Example 5(d)), read-out: Cochlea Average concentration
[3] = cochlea, Crystalline form (Example 5(c)), read-out: Cochlea Average concentration
[4] = perilymph, Amorphous form (Example 5(d)), read-out: perilymph Average concentration
[5] = perilymph, Crystalline form (Example 5(c)), read-out: Perilymph Average concentration

CN1C(=O)[C@@H](NC(=O)[C@](C)(F)C(=O)NCC(F)(F)C(F)(F)F)c2ccccc2-c2ccccc21 [Compound II, (2R)-2-fluoro-2-methyl-N—[(S)-5-methyl-6-oxo-6,7-dihydro-5H-dibenzo[b,d]azepin-7-yl]-N′-(2,2,3,3,3-pentafluoropropyl)malonamide]
IC50 (HES5): 23 nM | ABR Threshold Improvement (mice; 16 kHz): 8 dB | ABR Threshold Improvement (mice; 24 kHz): 11 dB | ABR Threshold Improvement (mice; 32 kHz): 7 dB | EC50 (Atoh1): 23 nM | concentration in the perilymph and the cochlea compared with the human NSC EC50 for Atoh1 ([1]; dosed as the amorphous form, transtympanic): above the human NSC EC50 for Atoh1 at 1 day and 7 days | concentration in the perilymph and the cochlea compared with the human NSC EC50 for Atoh1 ([1]; dosed as the crystalline form, transtympanic): above the human NSC EC50 Atoh1 from day 1 to day 42 | concentration at 1 day [1, 2]: 829 µM | concentration at 7 day [1, 2]: 18.1 µM | concentration at 14 day [1, 2]: 0 µM | concentration at 28 day [1, 2]: 0 µM | concentration at 1 day [1, 3]: 5280 µM | concentration at 7 day [1, 3]: 46.1 µM | concentration at 14 day [1, 3]: 222 µM | concentration at 28 day [1, 3]: 7.6 µM | concentration at 42 day [1, 3]: 0.6 µM | concentration at 56 day [1, 3]: 0 nM | concentration at 1 day [1, 4]: 159 µM | concentration at 7 day [1, 4]: 178 µM | concentration at 14 day [1, 4]: 0 µM | concentration at 28 day [1, 4]: 0 µM | concentration at 1 day [1, 5]: 502 µM | concentration at 7 day [1, 5]: 26 µM | concentration at 14 day [1, 5]: 26 µM | concentration at 28 day [1, 5]: 2.2 µM | concentration at 42 day [1, 5]: 0.3 µM | concentration at 56 day [1, 5]: 0 nM | exposure to the inner ear, crystalline formulation versus respective amorphous formulation ([1]; transtympanic, formulations of Example 5(a)-5(d)): longer exposure
